In US9796665B2 (priority 2013, dated 2017):

Assays:
[1] = test system: oxazolone-induced atopic dermatitis animal model; assay: Oxazolone-induced atopic dermatitis animal model, skin thickness; format: in vivo, hairless mice; conditions: FIG. 7(A) and (B)
Procedure: (§1) In order to evaluate efficacy of the novel compound according to the present invention in an animal model, first, hairless mice were treated with oxazolone (Sigma), thereby establishing atopic dermatitis-like animal models. More specifically, on day 1, the mice were sensitized with 1% oxazolone in acetone on the back, and after 1 week, the mice were treated with 0.1% oxazolone in acetone on the back every other day for 2 weeks, thereby inducing atopic dermatitis-like symptoms. Thereafter, the compound (1%) according to the present invention was dissolved in a solution in which polyethylene glycol (PEG, Sigma) and ethanol were mixed with each other at a ratio of 7:3, and the mice were treated with the obtained compound solution on the back once in the morning and evening for 10 days. […] In addition, a skin thickness of each of the animal models was measured and illustrated by a graph. […] Therefore, the compound according to the present invention may be effective to treat atopic dermatitis.

[2] = test system: RBL-2H3 cells (rat basophilic leukemia cells); assay: Degranulation of mast cells activated by ionomycin; format: cell-based; conditions: FIG. 2(A) and (B)
Procedure: In order to confirm whether or not the ceramide derivative compound according to the present invention suppresses activation of the mast cells, RBL-2H3 cells (rat basophilic leukemia cells) corresponding to one kind of mast cells were cultured in a DMEM medium containing 10% FBS in a 24-well plate, and then treated with the compound for 16 hours. In order to induce degranulation of the mast cells, the cells were treated with 2 μM ionomycin (Sigma), and after 30 minutes, concentrations of β-hexosaminidase and histamine released to the medium were measured. In detail, at the time of measuring the concentration of β-hexosaminidase, 50 μl of the medium was reacted together with 50 μl of p-nitrophenyl-nacetyl-β-d-glucosaminidine, (p-NAG, Sigma) at 37° C. for 2 hours, and then, the reaction was terminated by adding 200 μl of 0.2 M glycine (pH 10.6, Sigma). Absorbance at a wavelength of 405 nm was measured using a spectrometer. The concentration of histamine was measured using a HTRF histamine assay kit (Cisbio). 10 μl of a medium supernatant of the cells was treated with anti-histamine cryptate conjugate and histamine-d2 according to the manufacturer's manual at room temperature for 2 hours. Thereafter, fluorescence was measured at 665 nm and 620 nm and compensated by a ratio of 665 nm/620 nm, and then, the concentration of histamine in the cells was measured using a standard curve. […]

[3] = test system: RBL-2H3 cells (rat basophilic leukemia cells); assay: Degranulation of mast cells activated by IgE antibody and antigen; format: cell-based; conditions: FIG. 3(A) and (B)
Procedure: In order to confirm whether or not the ceramide derivative compound according to the present invention suppresses activities of the mast cells, RBL-2H3 cells (rat basophilic leukemia cells) corresponding to one kind of mast cells were cultured in a DMEM medium containing 10% FBS in a 24-well plate, and then treated with the compound for 16 hours. In order to induce degranulation of the mast cells, the cells were treated with IgE antibody (0.2 μg/ml) and NP-BSA (0.1 μg/ml) for 1 hour, and then, concentrations of β-hexosaminidase and histamine released to the medium were measured. In detail, at the time of measuring the concentration of β-hexosaminidase, 50 μl of the medium was reacted together with 50 μl of p-nitrophenyl-nacetyl-β-d-glucosaminidine, (p-NAG, Sigma) at 37° C. for 2 hours, and then, the reaction was terminated by adding 200 μl of 0.2 M glycine (pH 10.6, Sigma). Absorbance at a wavelength of 405 nm was measured using a spectrometer. The concentration of histamine was measured using a HTRF histamine assay kit (Cisbio). […] Thereafter, fluorescence was measured at 665 nm and 620 nm and compensated by a ratio of 665 nm/620 nm, and then, the concentration of histamine in the cells was measured using a standard curve.

[4] = test system: oxazolone-induced atopic dermatitis animal model; assay: Mast cells in skin of atopic dermatitis animal model (toluidine blue staining); format: in vivo, hairless mice; conditions: FIG. 9
Procedure: In order to evaluate whether or not the novel compound according to the present invention suppresses the activities of mast cells in an atopic dermatitis animal model, first, hairless mice were treated with oxazolone (Sigma), thereby establishing an atopic dermatitis animal model. More specifically, on day 1, mice were sensitized with 1% oxazolone in acetone on the back, and after 1 week, the mice were treated with 0.1% oxazolone in acetone on the back every other day for 2 weeks, thereby inducing atopic dermatitis on the back skin of the mice. Thereafter, the compound (1%) according to the present invention was dissolved in a solution in which polyethylene glycol (PEG, Sigma) and ethanol were mixed with each other at a ratio of 7:3, and the mice were treated with the obtained compound solution on the back once in the morning and evening for 10 days. Then, skin biopsy was taken and stained with toluidine blue solution (Sigma), thereby confirming presence of mast cells. […] The mast cells in the skin as described above release various kinds of inflammatory cytokines, thereby aggregating atopic dermatitis. […] The number of mast cells present on the skin in each of the groups was statistically analyzed and illustrated by a graph. […]

[5] = test system: oxazolone-induced atopic dermatitis animal model; assay: IgE and histamine in blood in atopic dermatitis animal model; format: in vivo, hairless mice; conditions: for concentration of IgE antibody in the blood: FIG. 8(A); for concentration of histamine in the blood: FIG. 8(B)
Procedure: as §1
In order to evaluate efficacy of the novel compound according to the present invention in an atopic dermatitis animal model, after treating an oxazolone (Sigma)-induced atopic dermatitis animal model with the compound, concentrations of IgE antibody and histamine present in the blood were measured. The IgE and histamine in the blood are known as markers of atopic dermatitis and inflammatory dermatitis such as contact dermatitis, and as the disease aggregates, the concentrations thereof in the blood further increases. The increased IgE activated mast cells, and allowed the mast cells to release a large amount of inflammatory cytokines such as histamine.

[6] = test system: RBL-2H3 cells (rat basophilic leukemia cells); assay: Histamine release of mast cells activated by PAR-2 agonist SLIGRL; format: cell-based; conditions: FIG. 4
Procedure: The PAR-2, which is a receptor activated by protease (tryptase, chymase, and the like) present outside cells, induces degranulation on surfaces of the mast cells. In order to confirm whether or not the ceramide derivative compound according to the present invention suppresses activities of the mast cells by PAR-2, RBL-2H3 cells (rat basophilic leukemia cells) corresponding to one kind of mast cells were cultured in a DMEM medium containing 10% FBS in a 24-well plate, and then treated with the compound for 2 hours. Thereafter, in order to induce degranulation of the mast cells, the cells were treated with 10 μM SLIGRL peptide, which is a PAR-2 agonist, for 1 hour. The concentration of histamine released outside the cells was measured using a HTRF histamine assay kit (Cisbio). 10 μl of a medium supernatant of the cells was treated with anti-histamine cryptate conjugate and histamine-d2 according to the manufacturer's manual at room temperature for 2 hours. Thereafter, fluorescence was measured at 665 nm and 620 nm and compensated by a ratio of 665 nm/620 nm, and then, the concentration of histamine in the cells was measured using a standard curve. […] Therefore, the novel ceramide derivative according to the present invention, which is the novel cannabinoid receptor agonist, is a compound effectively suppressing the activities of the mast cells.

[7] = molecular target: T1, cannabinoid receptor 1 (CB1R) (Homo sapiens, UniProt P21554); assay: cAMP production suppression in CHO cells over-expressing CB1R (HTRF cAMP assay, forskolin-induced); format: cell-based; conditions: for concentration of cAMP: 0-50 μM compound, 10 μM forskolin, FIG. 1; for Modulation: Target CB1R
T1 construct: host or cells: CHO cells over-expressing CB1R
T1 sequence (P21554 whole entry): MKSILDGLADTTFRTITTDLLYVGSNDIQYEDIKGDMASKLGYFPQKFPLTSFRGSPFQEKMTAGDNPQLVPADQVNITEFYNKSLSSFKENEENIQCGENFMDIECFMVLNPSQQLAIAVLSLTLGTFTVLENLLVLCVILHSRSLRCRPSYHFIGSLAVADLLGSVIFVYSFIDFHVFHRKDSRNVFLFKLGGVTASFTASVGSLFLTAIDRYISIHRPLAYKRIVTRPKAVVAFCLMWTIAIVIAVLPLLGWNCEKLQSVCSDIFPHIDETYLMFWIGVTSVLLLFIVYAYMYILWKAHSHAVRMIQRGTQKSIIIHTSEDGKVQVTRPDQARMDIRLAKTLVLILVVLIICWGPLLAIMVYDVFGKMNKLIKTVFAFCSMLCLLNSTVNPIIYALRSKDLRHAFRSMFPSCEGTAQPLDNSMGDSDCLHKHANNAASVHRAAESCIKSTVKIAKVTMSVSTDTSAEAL
Description: cAMP production suppression efficacy by agonistic action of the synthesized materials was confirmed using CHO cells in which cannabinoid receptor 1 (CB1R) was over-expressed.
The CHO cells in which the cannabinoid receptor 1 (CB1R) was over-expressed were purchased from Chantest, and cultured in an F-12 medium (Gibco) containing 10% fetal bovine serum (FBS, Gibco). In order to conform an agonistic activity of a ceramide derivative compounds according to the present invention on the cannabinoid receptor, the cells were plated in a 96-well dish, cultured for 24 hours, and then, treated at concentrations of 0, 0.781, 1.562, 3.125, 6.25, 12.5, 25, and 50 μM (0.1% DMSO in PBS). The cells were treated with 10 μM Forskolin (Sigma), thereby inducing cAMP production by adenylyl cyclase in the cells. A concentration of cAMP in the cells was measured using a HTRF cAMP assay kit purchased from Cisbio. After dissolving the cells with lysis buffer in the kit according to the manufacturer's manual, anti-cAMP cryptate conjugate and cAMP-d2 in the kit were treated at room temperature for 2 hours. Thereafter, fluorescence was measured at 665 nm and 620 nm and compensated by a ratio of 665 nm/620 nm, and then, the concentration of cAMP in the cells was measured using a standard curve. Since activity of adenylyl cyclase was suppressed when the cannabinoid receptor 1 (CB1R) was activated, the cannabinoid receptor agonist according to the present invention suppresses production of cAMP in the cells. […] As illustrated in the following Table 1, it may be confirmed that the novel cannabinoid receptor agonists according to the present invention activate the cannabinoid receptor 1 (CB1R) when EC50 was 24 to 26 μM.

| Compound | skin damage [1] | activation of mast cells by ionomycin [2] | activation of the mast cells by IgE antibody and antigen [3] | invasion of mast cells in a lesion site [4] | concentration of IgE antibody in the blood [5] | concentration of histamine in the blood [5] | activation of mast cells by protease activated receptor 2 (PAR-2) [6] | concentration of cAMP [7] | Modulation [7] |
| --- | --- | --- | --- | --- | --- | --- | --- | --- | --- |
| CCCCCCCC/C=C\CCCCCCCC(=O)C(CCCCCC/C=C\CCCCCCCC)C(=O)NCCO (stereo not drawn) [CBS004, (11Z)-2-((Z)-hexadec-7-enyl)-N-(2-hydroxyethyl)-3-oxoicos-11-enamide] | repair effects | suppression effects | suppression effects | suppressed | decrease effects | decrease effects | suppression effects | decreased dependently on the concentration of the compound | Agonist |
| CCCCCCCC/C=C\CCCCCCCC(=O)C(CCCCCC/C=C\CCCCCCCC)C(=O)NC(CO)CO (stereo not drawn) [CBS007, (11Z)-2-((Z)-hexadec-7-enyl)-N-(1,3-dihydroxypropan-2-yl)-3-oxoicos-11-enamide] | repair effects | suppression effects | suppression effects | suppressed | decrease effects | decrease effects | suppression effects | decreased dependently on the concentration of the compound | Agonist |
